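Grown in 96-well plates, cells were treated for 48 hours with each compound at five concentrations. Insufficient inhibition: endpoint recorded as highest concentration tested. Definition used: TGI = concentration required for complete inhibition of growth.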 Some results are limits rather than exact numbers.

In PubChem BioAssay (NCI) one finds TGI data, which are given here for 22 molecules.

Assay in all cases: NCI anticancer screen, dose series, 48 h
Experiment [1] concerns HCT-116 colon.
Experiment [2] concerns LOX IMVI melanoma.
Experiment [3] relates to OVCAR-5 ovarian.
The subject of experiment [4] is MOLT-4 leukemia.
Experiment [5] deals with NCI-H23 lung.
Experiment [6] concerns NCI-H226 lung.
Experiment [7] relates to NCI-H460 lung.
Experiment [8] has as its system SNB-19 CNS.
Experiment [9] deals with SN12C renal.
In experiment [10] the test system is RXF 393 renal.
Experiment [11] relates to NCI-H522 lung.
In experiment [12] the test system is SK-MEL-28 melanoma.
For experiment [13], the system named is COLO 205 colon.

On to `O=c1c2cc(Br)ccc2n(C2OC(CO)C(O)C(O)C2O)c(=S)n1-c1ccccc1` (stereo unspecified), for which the TGI in experiment [1], in experiment [2], in experiment [3], in experiment [4], in experiment [5] and in experiment [6] was more than 100 µM throughout. Besides, the TGI in experiment [7], in experiment [8], in experiment [9], in [10], in [11] and in [12] was more than 100 µM each time. The TGI in [13] is more than 100 µM.

As to `CC1=C(c2ccccc2)CON(c2ccccc2)C1`, the TGI was 79.9 µM in experiment [1]; more than 100 µM in [2]; more than 100 µM in experiment [3]; more than 100 µM in [4]; more than 100 µM in experiment [5]; more than 100 µM in experiment [6]. For the same molecule, the TGI in [7] is more than 100 µM; in [8], more than 100 µM; in experiment [9] it was more than 100 µM; in experiment [10] it was 86.2 µM; in experiment [11] it was 53.8 µM; in experiment [12], 86.2 µM. In [13], this molecule displayed a TGI of more than 100 µM.

Take `O[C@]12c3ccccc3C1CCCC2N1CCOCC1` (stereo partly specified): the TGI in [1], in [2], in experiment [4], in [5], in experiment [6] and in experiment [7] was more than 100 µM throughout. In addition, the TGI in experiment [8], in experiment [9], in experiment [10], in [11], in experiment [12] and in experiment [13] was more than 100 µM each time.

Turning to `COc1ccc(/C=N/NC(=O)CSc2nc(-c3ccccc3)c(-c3ccccc3)[nH]2)cc1OC`, the TGI turned out to be 87.2 µM in experiment [1]; 44.8 µM in experiment [2]; 64 µM in [3]; 37.6 µM in experiment [4]; 76.7 µM in experiment [5]; 80.4 µM in experiment [6]. Also, the TGI in experiment [7] was 91.6 µM; in [8], more than 100 µM; in [9] it was 94.4 µM; in experiment [10], 52.7 µM; in [11] it was 39.9 µM; in experiment [12], 89.8 µM. The TGI in [13] is 49.2 µM.

Turning to `COc1cc2c(cc1OC)C(Cc1cc(Br)c(OC)c(OC)c1)=[N+](C)CC2`, the TGI in [1], in experiment [2], in experiment [3], in [5], in [6] and in experiment [7] was more than 100 µM throughout. The TGI in experiment [8], in [9], in experiment [10], in experiment [11], in experiment [12] and in [13] was more than 100 µM throughout.

`FC(F)(F)c1nc2c(ccc3[nH]c4c(-c5ccccc5)nccc4c32)[nH]1`: the TGI in experiment [1] is more than 100 µM; in experiment [2], more than 75.9 µM; in [3], more than 100 µM; in [4], more than 100 µM; in [5], more than 100 µM; in experiment [6], more than 100 µM. Further, the TGI in experiment [7], in [8], in [9], in [10], in [11] and in experiment [12] was more than 100 µM in each case. In experiment [13], the TGI was more than 100 µM.

Turning to `CC(C(=O)c1ccc(O)cc1)C1(O)C(=O)Nc2c(Cl)cc(Cl)cc21` (stereo unspecified), the TGI in experiment [1] is more than 100 µM; in experiment [2], more than 67.8 µM; in experiment [3] it was more than 100 µM; in experiment [4] it was more than 100 µM; in experiment [5], more than 100 µM; in experiment [6], more than 100 µM. Further, the TGI in experiment [7] is more than 100 µM; in experiment [8], more than 100 µM; in experiment [9] it was more than 100 µM; in [10], 68.8 µM; in [11] it was 57.8 µM; in [12], 78.1 µM. For the same molecule, in experiment [13], the TGI is more than 100 µM.

As for `COc1ccc(C2S/C(=C\c3ccc([N+](=O)[O-])cc3)C(=O)N2NC(=O)Cc2ccccc2)cc1` (stereo unspecified), the TGI in experiment [1], in experiment [2], in [3], in experiment [4], in experiment [5] and in experiment [6] was more than 100 µM each time. In addition, the TGI in experiment [7], in experiment [9], in experiment [10], in [11], in experiment [12] and in [13] was more than 100 µM in each case.

For the molecule `O=C(Cc1ccccc1)N/N=C(/c1nc2ccc([N+](=O)[O-])cc2[nH]c1=O)C(O)c1ccco1` (stereo unspecified), the TGI in experiment [1], in [2], in [3], in [4], in experiment [5] and in experiment [6] was more than 100 µM throughout. Also, the TGI in experiment [7], in [9], in experiment [11], in experiment [12] and in experiment [13] was more than 100 µM throughout.

As for `C[C@@H]1C[C@@H]2C(=O)N(c3ccccc3)C(=O)[C@@H]2c2[nH]c3ccc(Br)cc3c21`, the TGI in experiment [1], in experiment [2], in experiment [3], in [4], in experiment [5] and in experiment [7] was more than 100 µM in each case. Besides, the TGI in [8] is more than 100 µM; in experiment [9], more than 100 µM; in experiment [10], 78.5 µM; in [11] it was 78.5 µM; in [12] it was more than 100 µM; in experiment [13] it was more than 100 µM.

For `O=C(c1nc2ccc(Cl)cc2[nH]c1=O)C(O)c1ccco1` (stereo unspecified), the TGI in [1], in experiment [2], in experiment [3], in experiment [4], in [5] and in [6] was more than 100 µM each time. In addition, the TGI in experiment [7] was more than 100 µM; in [8], more than 100 µM; in experiment [10], more than 100 µM; in [11] it was 32.2 µM; in experiment [12] it was more than 100 µM; in experiment [13], more than 100 µM.

In the case of `CN(C)CCSC(=Nc1ccccc1)n1cccc1`, the TGI in [1] is more than 100 µM; in experiment [2], more than 100 µM; in experiment [3] it was more than 100 µM; in [4], more than 100 µM; in [5], more than 100 µM; in [6] it was 75.7 µM. Further, the TGI in experiment [7], in experiment [8], in experiment [9], in experiment [10], in experiment [11] and in experiment [12] was more than 100 µM in each case. This molecule gave a TGI in experiment [13] of more than 100 µM.

Regarding `NC(=S)N/N=C(/CCN1CCCC1)CC(C1=C(O)C2=CCCCC2OC1=O)c1ccccc1` (stereo unspecified), the TGI in experiment [1], in experiment [2], in [3], in experiment [5], in experiment [6] and in experiment [7] was more than 100 µM throughout. In addition, the TGI in experiment [8], in experiment [9], in experiment [10], in experiment [11] and in experiment [13] was more than 100 µM each time.

For the molecule `CCOC(=O)/C(=C/c1ccccc1)N(CC)CC`, the TGI in [1], in experiment [2], in experiment [3], in experiment [4], in experiment [5] and in [6] was more than 100 µM throughout. The TGI in experiment [7], in [8], in experiment [9], in [11], in [12] and in experiment [13] was more than 100 µM throughout.

As to `[N-]=[N+]=Nc1nnc(CCCCc2nnc(N=[N+]=[N-])o2)o1`, the TGI in [1], in experiment [2], in [3], in experiment [4], in [5] and in [6] was more than 100 µM throughout. The TGI in [7], in [8], in experiment [9], in experiment [10], in experiment [11] and in [12] was more than 100 µM throughout. In experiment [13], this molecule registered a TGI of more than 100 µM.

For `CC(=O)NC(CCCCN(Cc1ccccc1)C(=O)N(C)N=O)C(=O)NCc1ccccc1` (stereo unspecified), the TGI in experiment [1], in experiment [2], in experiment [3], in experiment [4], in experiment [5] and in experiment [6] was more than 100 µM in each case. The TGI in experiment [7], in experiment [8], in experiment [9], in experiment [10], in experiment [11] and in experiment [12] was more than 100 µM each time. For the same molecule, the TGI in experiment [13] is more than 100 µM.

For the molecule `N#CC(C(=S)Nc1ccccc1)=C1Nc2ccccc2N1`, the TGI in [1], in [2], in [3], in experiment [4], in [5] and in [6] was more than 10 µM throughout. The TGI in [7], in experiment [8], in experiment [9], in [11], in experiment [12] and in experiment [13] was more than 10 µM each time.

Take `COc1ccc([C@H]2[C@@H]3CCc4ccccc4C3=NN2C(N)=S)cc1OC`: the TGI in [1], in experiment [2], in experiment [3], in experiment [4], in experiment [5] and in experiment [6] was more than 100 µM in each case. Besides, the TGI in experiment [7] was more than 100 µM; in experiment [8] it was more than 100 µM; in experiment [9] it was more than 100 µM; in [10], more than 100 µM; in experiment [11], 59.7 µM; in experiment [12], more than 100 µM.

In the case of `COc1cc(CO)cc2c1[nH]c1ccccc12`, the TGI in experiment [1] is more than 25 µM; in [2], more than 25 µM; in experiment [3], more than 25 µM; in experiment [4], more than 25 µM; in [6], 5.27 µM; in experiment [7] it was more than 25 µM. For the same molecule, the TGI in experiment [8], in experiment [9], in experiment [10], in experiment [11], in experiment [12] and in experiment [13] was more than 25 µM in each case.

Regarding `CC(=O)OCc1ncccc1C(OC(C)=O)OC(C)=O`, the TGI in [1], in experiment [2], in [3], in experiment [4], in [5] and in experiment [7] was more than 100 µM each time. The TGI in [8], in [9], in experiment [10], in [11], in [12] and in [13] was more than 100 µM in each case.

For the molecule `CCOc1cc2cnc3c4cc(OC)c(OC)cc4ccc3c2cc1OC`, the TGI in experiment [1], in [2], in [3], in [4], in [5] and in [6] was more than 100 µM each time. The TGI in [7], in experiment [8], in [9], in [10], in [11] and in experiment [12] was more than 100 µM each time. In [13], this molecule showed a TGI of more than 100 µM.

With `NC(CCSCCF)C(=O)O` (stereo unspecified), the TGI in [1], in [2], in experiment [3], in [4], in experiment [5] and in experiment [6] was more than 100 µM throughout. Besides, the TGI in experiment [7], in [8], in [9], in [11], in experiment [12] and in experiment [13] was more than 100 µM in each case.
